According to patent US20130072553A1, “DRUGS, DERIVATIVES AND ANALOGS CONTAINING ADAMANTANE STRUCTURES OF NEW INDICATION APPLICATIONS OF ANTI-TUMOR” (priority 2009, published 2013):
Where two headings read alike, the source gives them in different places.

How the values were obtained:
[1] = Body weight of S180 tumor-bearing mice
Description: (§1) Xenografts cultured S180 tumor cells were implanted subcutaneously into the flank region of mice and tumors were allowed to grow to the desired average size of 100 mg. The mice were randomized into control and treatment groups with 10 mice per group. The control group was injected with the vehicle used to dissolve the drug. […] Injections were I.V. via the tailvein.
(§2) The test group inoculated tumor cells […] in mice armpit, administration and observation of seven days.

[2] = test system: Human pancreatic cancer cell line Panc-1; experiment: In vitro anti-cancer cell experiment (MTT), pancreatic cancer Panc-1; format: cell-based
Description: (§3) Cell lines: Human pancreatic cancer cell line Panc-1, human colorectal cancer cell line HT29, human lung cancer cell line NCI-H460 and human breast cancer cell line MCF7; the medium: s DMEM (Gibco BRL), containing 10% fetal calf serum (Gibco BRL) and 2 mM L-glutamine (Gibco BRL).
(§4) The samples were dissolved in dimethyl sulfoxide (DMSO, Sigma, United States) and medium was added to the final concentration of 0.5%. cyclophosphamide was as positive control (CTX, purity>96%).
(§5) Method: cells were digested with trypsin and dispersed into single cells in the medium containing penicillin (25 U/ml) and streptomycin (25 μg/ml). The cells were seeded in 96-well culture plates (Corning Incorporated), at 37° C., with 5% CO2 present for 24 hours. The culture medium was removed, 1-100 μm test compounds were added, cultured for 48 hours. Culture medium was removed and […] (MTT, USA Sigma products) was added. The result was assayed by SK601-based microplate reader (Japan Seikagaku company's products), 570 nm/630 nm optical density (OD). Cell viability determined by the formula: (Experimental group OD/control OD)×100%; CDDP and the positive control subjects treated in the same material simultaneously.

mice sarcoma S180 = experiment: Inhibition of the sarcoma growth S180 in mice; format: in vivo; conditions: for anti-tumor efficacy in vivo: iv; for inhibition rate compared with positive control 5-FU / inhibition compared with positive control cyclophosphamide: by tumor weight, seven days
Description: Tumor strains: mice sarcoma S180 for ascites passaged from Beijing Academy of Military Medical Institute of Pharmacology.
as §1, §2

[3] = test system: human lung cancer cell line NCI-H460; experiment: In vitro anti-cancer cell experiment (MTT), lung cancer NCI-H460; format: cell-based
Description: as §3, §4, §5

[4] = test system: human breast cancer cell line MCF7; experiment: In vitro anti-cancer cell experiment (MTT), breast cancer MCF7; format: cell-based
Description: as §3, §4, §5

[5] = test system: human colorectal cancer cell line HT29; experiment: In vitro anti-cancer cell experiment (MTT), colorectal cancer HT29; format: cell-based
Description: as §3, §4, §5

[6] = Panc-1 cells, 48 hours, MTT, read-out: IC50 Pancreatic cancer Panc-1
[7] = Panc-1 cells, 48 hours, MTT, value (95% confidence limits), read-out: IC50 and 95% confidence limits, anti-proliferative effect on Panc-1
[8] = NCI-H460 cells, 48 hours, MTT, read-out: IC50 Lung cancer NCI-H460
[9] = NCI-H460 cells, 48 hours, MTT, value (95% confidence limits), unit given only for CTX, read-out: IC50 and 95% confidence limits, inhibitory effect on lung cancer NCI-H460 cells
[10] = MCF7 cells, 48 hours, MTT, read-out: IC50 Breast cancer MCF7
[11] = MCF7 cells, 48 hours, MTT, value (95% confidence limits), unit given only for CTX, read-out: IC50 with 95% confidence limits, inhibitory effect on breast cancer MCF7 cells
[12] = HT-29, HT29 cells, 48 hours, MTT, value (95% confidence limits), read-out: IC50 and 95% confidence limit, anti-proliferative effect on HT29
[13] = HT-29 cells, 48 hours, MTT, read-out: IC50 Colorectal cancer HT-29
[14] = MCF7, 48 h, read-out: IC50 with 95% confidence limits, inhibitory effect on breast cancer MCF7 cells

SMILES | body Weight/g After ad. ([1]; mouse, in vivo, iv) [g] | body Weight/g Before ad. ([1]; mouse, in vivo, iv) [g] | IC50 [2, 6] [µM] | IC50 [2, 7] [µg/mL] | anti-tumor efficacy in vivo (mice sarcoma S180) | IC50 [3, 8] [µM] | IC50 [3, 9] [µg/mL] | IC50 [4, 10] [µM] | IC50 [4, 11] [µg/mL] | inhibition rate compared with positive control 5-FU (mice sarcoma S180) | IC50 [5, 12] [µg/mL] | IC50 [5, 13] [µM] | inhibition compared with positive control cyclophosphamide (mice sarcoma S180) | other results
O=c1[nH]cc(F)c(=O)[nH]1 [Compound 5-FU, 5-fluorouracil] | 29.16 ± 2.50 | 21.61 ± 1.56 |  |  |  |  |  |  |  |  |  |  |  | 
O=C1C2CC3CC1CC(O)(C3)C2 [Compound 6, Idramantone] | 26.30 ± 3.62 | 19.92 ± 1.47 | 53.5 | 53.5 | statistically significant |  |  |  |  |  |  |  |  | 
CN(C)CCOCC(=O)NC12CC3CC(CC(C3)C1)C2 [Compound 4, Tromantadine] | 28.64 ± 4.13 | 21.03 ± 0.29 | 10 | 10 | statistically significant | 8.52 | 8.52 | 67.5 | 67.5 | better than the positive control group, 5-FU | 10.2 | 10.2 |  | 
CC12CC3CC(C)(C1)CC(N)(C3)C2 [Compound 3, Memantine] | 28.98 ± 1.74 | 21.31 ± 1.53 | 53 | 53 | statistically significant | 60.5 | 60.5 | 34.3 | 34.3 | better than the positive control group, 5-FU | 13.1 | 13.1 | significantly better than the positive control group of cyclophosphamide | 
NC12CC3CC(CC(C3)C1)C2 [Compound 1, Amantadine] | 27.93 ± 3.37 | 21.41 ± 2.52 | 51.3 | 51.3 | statistically significant | 5.18 | 5.18 | 6.18 |  |  | 18.8 | 18.8 |  | IC50 [4, 14]: 6.18 µg/mL
O=P1(N(CCCl)CCCl)NCCCO1 (centres unmarked) [CTX, cyclophosphamide] |  |  |  |  |  |  |  |  |  |  |  |  |  | IC50 ([3]; NCI-H460, 48 h, read-out: IC50 Lung cancer NCI-H460): 4.3 µM; IC50 ([3]; NCI-H460, 48 h, read-out: IC50 and 95% confidence limits, inhibitory effect on lung cancer NCI-H460 cells): 4.3 µg/mL; IC50 ([4]; MCF7, 48 h, read-out: IC50 Breast cancer MCF7): 0.92 µM; IC50 [4, 14]: 0.92 µg/mL; body Weight/g After ad. ([1]; after administration, iv, seven days, X ± SD): 28.22 ± 2.46 g; body Weight/g Before ad. ([1]; before administration (baseline), iv groups, X ± SD): 22.45 ± 0.79 g; IC50 ([2]; PANC-1, 48 h, read-out: IC50 Pancreatic cancer Panc-1): 2.23 µM; IC50 ([2]; PANC-1, 48 h, read-out: IC50 and 95% confidence limits, anti-proliferative effect on Panc-1): 2.23 µg/mL; IC50 ([5]; HT-29, 48 h, read-out: IC50 Colorectal cancer HT-29): 2.26 µM; IC50 ([5]; HT-29, 48 h, read-out: IC50 and 95% confidence limit, anti-proliferative effect on HT29): 2.26 µg/mL
COc1ccc(-c2ccc3cc(C(=O)O)ccc3c2)cc1C12CC3CC(CC(C3)C1)C2 [Compound 5, Adapalene] | 20.80 ± 3.61 | 20.27 ± 1.80 | 2.17 | 2.17 | statistically significant | 2.81 | 2.81 |  |  | better than the positive control group, 5-FU | 0.85 | 0.85 | significantly better than the positive control group of cyclophosphamide | 
CC(N)C12CC3CC(CC(C3)C1)C2 (centres unmarked) [Compound 2, Rimantadine] | 26.02 ± 3.69 | 19.35 ± 0.95 | 2.42 | 2.42 | statistically significant | 22 | 22 | 2.73 | 2.73 | better than the positive control group, 5-FU | 3.92 | 3.92 | significantly better than the positive control group of cyclophosphamide | 
